# Source: article PMC6891286, “Towards the Development of an In vivo Chemical Probe for Cyclin G Associated Kinase (GAK)” (Molecules, 2019)
# Key:
# Assay in all cases: KINOMEscan
# Type in all cases: binding
# [1] = biological target: T1, RSK2(Kin.Dom.2-C-terminal) (Homo sapiens, UniProt P51812); conditions: 35 at 1 µM; read-out: % inhibition
# T1 construct: RSK2(Kin.Dom.2-C-terminal); purchased Eurofins DiscoverX (KINOMEscan)
# Procedure: (§1) KinomeScan Assay on 35 was performed as previously described at EuroFins DiscoverX (Fremont, CA, USA).
# [2] = biological target: T2, TNK2 (Homo sapiens, UniProt Q07912); conditions: 35 at 1 µM; read-out: % inhibition
# T2 construct: purchased Eurofins DiscoverX (KINOMEscan)
# Procedure: as §1
# [3] = biological target: T3, INSRR (Homo sapiens, UniProt P14616); conditions: 35 at 1 µM; read-out: % inhibition
# T3 construct: purchased Eurofins DiscoverX (KINOMEscan)
# Procedure: as §1
# [4] = biological target: T4, DMPK (Homo sapiens, UniProt Q09013); conditions: 35 at 1 µM; read-out: % inhibition
# T4 construct: purchased Eurofins DiscoverX (KINOMEscan)
# Procedure: as §1
# [5] = biological target: T5, RIOK1 (Homo sapiens, UniProt Q9BRS2); conditions: 35 at 1 µM; read-out: % inhibition
# T5 construct: purchased Eurofins DiscoverX (KINOMEscan)
# Procedure: as §1
# [6] = biological target: T6, CSF1R (Homo sapiens, UniProt P07333); conditions: 35 at 1 µM; read-out: % inhibition
# T6 construct: purchased Eurofins DiscoverX (KINOMEscan)
# Procedure: as §1
# [7] = biological target: T7, ERK8 (Homo sapiens, UniProt Q8TD08); conditions: 35 at 1 µM; read-out: % inhibition
# T7 construct: purchased Eurofins DiscoverX (KINOMEscan)
# Procedure: as §1
# [8] = biological target: T8, RET (Homo sapiens, UniProt P07949); conditions: 35 at 1 µM; read-out: % inhibition
# T8 construct: purchased Eurofins DiscoverX (KINOMEscan)
# Procedure: as §1
# [9] = biological target: T9, TGFBR1 (Homo sapiens, UniProt P36897); conditions: 35 at 1 µM; read-out: % inhibition
# T9 construct: purchased Eurofins DiscoverX (KINOMEscan)
# Procedure: as §1
# [10] = biological target: T10, DCAMKL2 (Homo sapiens, UniProt Q8N568); conditions: 35 at 1 µM; read-out: % inhibition
# T10 construct: purchased Eurofins DiscoverX (KINOMEscan)
# Procedure: as §1
# [11] = biological target: T11, LRRK2(G2019S) (Homo sapiens, UniProt Q5S007, G2019S); conditions: 35 at 1 µM; read-out: % inhibition
# T11 construct: purchased Eurofins DiscoverX (KINOMEscan)
# T11 sequence (Q5S007 whole entry G2019S): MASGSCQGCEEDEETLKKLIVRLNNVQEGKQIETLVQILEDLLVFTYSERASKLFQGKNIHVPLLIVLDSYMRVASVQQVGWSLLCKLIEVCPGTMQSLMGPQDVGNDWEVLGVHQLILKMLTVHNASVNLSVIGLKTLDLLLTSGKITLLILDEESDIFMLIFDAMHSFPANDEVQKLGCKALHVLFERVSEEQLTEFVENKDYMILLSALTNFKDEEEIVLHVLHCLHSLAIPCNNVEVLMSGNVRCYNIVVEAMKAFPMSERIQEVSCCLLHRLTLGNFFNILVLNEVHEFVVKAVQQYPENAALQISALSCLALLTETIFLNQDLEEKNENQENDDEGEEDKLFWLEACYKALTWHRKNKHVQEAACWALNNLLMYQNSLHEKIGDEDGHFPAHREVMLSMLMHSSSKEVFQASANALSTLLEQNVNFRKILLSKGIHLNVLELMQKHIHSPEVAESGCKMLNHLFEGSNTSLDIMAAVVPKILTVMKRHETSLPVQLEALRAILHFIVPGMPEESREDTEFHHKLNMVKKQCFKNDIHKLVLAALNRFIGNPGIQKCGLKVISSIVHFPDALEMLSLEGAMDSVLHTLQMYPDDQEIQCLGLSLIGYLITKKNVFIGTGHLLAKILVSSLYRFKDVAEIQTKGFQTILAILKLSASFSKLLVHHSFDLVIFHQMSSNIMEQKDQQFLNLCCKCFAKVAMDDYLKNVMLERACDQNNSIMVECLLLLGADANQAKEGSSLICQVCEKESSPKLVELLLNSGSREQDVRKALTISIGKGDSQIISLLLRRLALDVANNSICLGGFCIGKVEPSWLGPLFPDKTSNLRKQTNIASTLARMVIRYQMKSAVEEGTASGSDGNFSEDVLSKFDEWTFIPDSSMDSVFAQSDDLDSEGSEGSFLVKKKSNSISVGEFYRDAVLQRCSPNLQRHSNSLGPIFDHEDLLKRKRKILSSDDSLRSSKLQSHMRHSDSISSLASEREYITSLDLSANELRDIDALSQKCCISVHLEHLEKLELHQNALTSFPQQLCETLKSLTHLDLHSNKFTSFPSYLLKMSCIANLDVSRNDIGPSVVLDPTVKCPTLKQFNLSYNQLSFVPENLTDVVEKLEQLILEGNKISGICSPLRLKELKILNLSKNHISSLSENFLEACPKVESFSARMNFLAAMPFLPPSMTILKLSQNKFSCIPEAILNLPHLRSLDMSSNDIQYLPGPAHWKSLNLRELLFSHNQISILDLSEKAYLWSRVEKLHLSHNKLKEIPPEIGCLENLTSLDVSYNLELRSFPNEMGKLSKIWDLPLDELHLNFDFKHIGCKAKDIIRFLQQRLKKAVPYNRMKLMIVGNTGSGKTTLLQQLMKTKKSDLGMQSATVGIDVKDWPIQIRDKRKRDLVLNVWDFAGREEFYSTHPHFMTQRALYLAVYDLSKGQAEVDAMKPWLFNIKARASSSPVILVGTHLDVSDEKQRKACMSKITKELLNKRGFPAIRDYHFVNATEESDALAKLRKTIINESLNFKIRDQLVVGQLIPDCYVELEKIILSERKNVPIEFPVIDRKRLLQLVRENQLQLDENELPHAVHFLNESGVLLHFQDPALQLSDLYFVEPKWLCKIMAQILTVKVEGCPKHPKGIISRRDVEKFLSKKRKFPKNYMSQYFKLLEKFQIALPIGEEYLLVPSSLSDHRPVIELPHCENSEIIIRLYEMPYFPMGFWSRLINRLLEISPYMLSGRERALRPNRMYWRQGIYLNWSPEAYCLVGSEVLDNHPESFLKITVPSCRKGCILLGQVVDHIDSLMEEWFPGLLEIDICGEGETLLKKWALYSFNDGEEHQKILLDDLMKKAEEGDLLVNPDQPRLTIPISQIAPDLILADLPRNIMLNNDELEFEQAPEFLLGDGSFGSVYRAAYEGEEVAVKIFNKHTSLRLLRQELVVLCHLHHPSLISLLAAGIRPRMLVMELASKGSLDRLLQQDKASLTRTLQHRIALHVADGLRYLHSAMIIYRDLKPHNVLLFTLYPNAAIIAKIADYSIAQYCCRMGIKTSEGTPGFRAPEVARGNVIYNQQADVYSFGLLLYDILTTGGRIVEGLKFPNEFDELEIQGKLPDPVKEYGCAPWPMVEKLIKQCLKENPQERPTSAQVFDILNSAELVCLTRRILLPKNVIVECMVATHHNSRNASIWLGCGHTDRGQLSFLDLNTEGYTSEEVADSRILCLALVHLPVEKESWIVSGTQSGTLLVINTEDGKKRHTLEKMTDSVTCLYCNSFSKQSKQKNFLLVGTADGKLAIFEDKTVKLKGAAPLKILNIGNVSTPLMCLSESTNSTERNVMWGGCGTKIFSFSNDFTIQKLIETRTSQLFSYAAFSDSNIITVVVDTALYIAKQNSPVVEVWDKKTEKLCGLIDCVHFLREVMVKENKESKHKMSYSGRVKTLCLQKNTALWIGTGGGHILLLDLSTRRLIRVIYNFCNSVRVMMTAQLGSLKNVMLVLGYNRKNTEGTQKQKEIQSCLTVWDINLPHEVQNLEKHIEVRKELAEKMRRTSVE
# Procedure: as §1
# [12] = biological target: T12, CDK2 (Homo sapiens, UniProt P24941); conditions: 35 at 1 µM; read-out: % inhibition
# T12 construct: purchased Eurofins DiscoverX (KINOMEscan)
# Procedure: as §1
# [13] = biological target: T13, LRRK2 (Homo sapiens, UniProt Q5S007); conditions: 35 at 1 µM; read-out: % inhibition
# T13 construct: purchased Eurofins DiscoverX (KINOMEscan)
# T13 sequence (Q5S007 whole entry): as the sequence (Q5S007 whole entry G2019S) above, with S2019G counted along it
# Procedure: as §1
# [14] = biological target: T14, LATS2 (Homo sapiens, UniProt Q9NRM7); conditions: 35 at 1 µM; read-out: % inhibition
# T14 construct: purchased Eurofins DiscoverX (KINOMEscan)
# Procedure: as §1
# [15] = biological target: T15, PLK3 (Homo sapiens, UniProt Q9H4B4); conditions: 35 at 1 µM; read-out: % inhibition
# T15 construct: purchased Eurofins DiscoverX (KINOMEscan)
# Procedure: as §1
# [16] = biological target: T16, ERK4 (Homo sapiens, UniProt P31152); conditions: 35 at 1 µM; read-out: % inhibition
# T16 construct: purchased Eurofins DiscoverX (KINOMEscan)
# Procedure: as §1
# [17] = biological target: T17, CDKL1 (Homo sapiens, UniProt Q00532); conditions: 35 at 1 µM; read-out: % inhibition
# T17 construct: purchased Eurofins DiscoverX (KINOMEscan)
# T17 sequence (Q00532 whole entry): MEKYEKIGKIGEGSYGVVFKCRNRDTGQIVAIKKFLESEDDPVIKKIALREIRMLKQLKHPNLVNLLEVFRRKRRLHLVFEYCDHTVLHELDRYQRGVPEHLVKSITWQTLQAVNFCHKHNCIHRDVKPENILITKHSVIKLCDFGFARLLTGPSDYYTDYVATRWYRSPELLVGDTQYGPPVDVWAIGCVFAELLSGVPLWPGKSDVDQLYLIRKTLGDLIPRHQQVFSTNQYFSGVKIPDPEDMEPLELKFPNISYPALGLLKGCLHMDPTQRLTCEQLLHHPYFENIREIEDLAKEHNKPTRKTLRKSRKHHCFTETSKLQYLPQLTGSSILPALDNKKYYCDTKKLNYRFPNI
# Procedure: as §1
# [18] = biological target: T18, MARK3 (Homo sapiens, UniProt P27448); conditions: 35 at 1 µM; read-out: % inhibition
# T18 construct: purchased Eurofins DiscoverX (KINOMEscan)
# Procedure: as §1
# [19] = biological target: T19, PRKCE (Homo sapiens, UniProt Q02156); conditions: 35 at 1 µM; read-out: % inhibition
# T19 construct: purchased Eurofins DiscoverX (KINOMEscan)
# Procedure: as §1
# [20] = biological target: T20, PIK4CB (Homo sapiens, UniProt Q9UBF8); conditions: 35 at 1 µM; read-out: % inhibition
# T20 construct: purchased Eurofins DiscoverX (KINOMEscan)
# Procedure: as §1
# [21] = biological target: T21, MRCKB (Homo sapiens, UniProt Q9Y5S2); conditions: 35 at 1 µM; read-out: % inhibition
# T21 construct: purchased Eurofins DiscoverX (KINOMEscan)
# Procedure: as §1
# [22] = biological target: T22, ROCK2 (Homo sapiens, UniProt O75116); conditions: 35 at 1 µM; read-out: % inhibition
# T22 construct: purchased Eurofins DiscoverX (KINOMEscan)
# Procedure: as §1
# [23] = biological target: T23, CAMK1B (Homo sapiens, UniProt Q6P2M8); conditions: 35 at 1 µM; read-out: % inhibition
# T23 construct: purchased Eurofins DiscoverX (KINOMEscan)
# Procedure: as §1
# [24] = biological target: T24, EIF2AK1 (Homo sapiens, UniProt Q9BQI3); conditions: 35 at 1 µM; read-out: % inhibition
# T24 construct: purchased Eurofins DiscoverX (KINOMEscan)
# Procedure: as §1
# [25] = biological target: T25, BRSK1 (Homo sapiens, UniProt Q8TDC3); conditions: 35 at 1 µM; read-out: % inhibition
# T25 construct: purchased Eurofins DiscoverX (KINOMEscan)
# Procedure: as §1
# [26] = biological target: T26, BRK (Homo sapiens, UniProt Q13882); conditions: 35 at 1 µM; read-out: % inhibition
# T26 construct: purchased Eurofins DiscoverX (KINOMEscan)
# Procedure: as §1
# [27] = biological target: T27, PAK7 (Homo sapiens, UniProt Q9P286); conditions: 35 at 1 µM; read-out: % inhibition
# T27 construct: purchased Eurofins DiscoverX (KINOMEscan)
# T27 sequence (Q9P286 whole entry): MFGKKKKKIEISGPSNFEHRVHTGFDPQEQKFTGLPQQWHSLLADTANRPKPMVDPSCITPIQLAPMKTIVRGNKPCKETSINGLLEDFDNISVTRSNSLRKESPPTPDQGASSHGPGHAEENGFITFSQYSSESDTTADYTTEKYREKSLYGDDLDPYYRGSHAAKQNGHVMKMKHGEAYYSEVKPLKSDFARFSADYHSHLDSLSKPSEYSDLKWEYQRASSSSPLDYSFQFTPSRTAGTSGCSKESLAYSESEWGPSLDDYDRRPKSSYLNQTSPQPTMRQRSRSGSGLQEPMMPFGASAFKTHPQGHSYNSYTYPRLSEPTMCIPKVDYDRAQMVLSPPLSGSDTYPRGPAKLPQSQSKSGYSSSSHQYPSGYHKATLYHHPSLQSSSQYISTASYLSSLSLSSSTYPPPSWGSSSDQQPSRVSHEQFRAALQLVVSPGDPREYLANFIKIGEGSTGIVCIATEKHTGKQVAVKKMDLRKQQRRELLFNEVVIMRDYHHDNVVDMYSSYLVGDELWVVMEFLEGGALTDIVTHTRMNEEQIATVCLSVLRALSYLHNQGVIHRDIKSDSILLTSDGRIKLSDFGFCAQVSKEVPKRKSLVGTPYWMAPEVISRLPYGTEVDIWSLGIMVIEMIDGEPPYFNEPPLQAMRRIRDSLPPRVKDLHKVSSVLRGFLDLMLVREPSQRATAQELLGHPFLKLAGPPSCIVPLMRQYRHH
# Procedure: as §1
# [28] = biological target: T28, PDGFRB (Homo sapiens, UniProt P09619); conditions: 35 at 1 µM; read-out: % inhibition
# T28 construct: purchased Eurofins DiscoverX (KINOMEscan)
# Procedure: as §1
# [29] = biological target: T29, MKK7 (Homo sapiens, UniProt O14733); conditions: 35 at 1 µM; read-out: % inhibition
# T29 construct: purchased Eurofins DiscoverX (KINOMEscan)
# T29 sequence (O14733 whole entry): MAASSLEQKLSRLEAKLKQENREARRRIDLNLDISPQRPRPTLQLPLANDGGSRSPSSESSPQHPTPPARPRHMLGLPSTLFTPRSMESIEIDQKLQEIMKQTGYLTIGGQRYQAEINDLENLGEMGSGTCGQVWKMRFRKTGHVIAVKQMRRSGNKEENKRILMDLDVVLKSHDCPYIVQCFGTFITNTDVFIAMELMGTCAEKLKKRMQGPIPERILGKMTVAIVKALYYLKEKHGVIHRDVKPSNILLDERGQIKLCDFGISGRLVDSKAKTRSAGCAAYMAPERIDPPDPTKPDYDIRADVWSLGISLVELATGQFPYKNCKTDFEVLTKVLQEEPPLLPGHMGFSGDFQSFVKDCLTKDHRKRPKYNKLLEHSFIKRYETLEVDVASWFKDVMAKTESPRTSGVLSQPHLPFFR
# Procedure: as §1
# [30] = biological target: T30, CSNK1G2 (Homo sapiens, UniProt P78368); conditions: 35 at 1 µM; read-out: % inhibition
# T30 construct: purchased Eurofins DiscoverX (KINOMEscan)
# Procedure: as §1
# [31] = biological target: T31, HASPIN (Homo sapiens, UniProt Q8TF76); conditions: 35 at 1 µM; read-out: % inhibition
# T31 construct: purchased Eurofins DiscoverX (KINOMEscan)
# Procedure: as §1
# [32] = biological target: T32, CDK4-cyclinD3 (Homo sapiens, UniProt P11802); conditions: 35 at 1 µM; read-out: % inhibition
# T32 construct: purchased Eurofins DiscoverX (KINOMEscan)
# Procedure: as §1
# [33] = biological target: T33, LKB1 (Homo sapiens, UniProt Q15831); conditions: 35 at 1 µM; read-out: % inhibition
# T33 construct: purchased Eurofins DiscoverX (KINOMEscan)
# Procedure: as §1
# [34] = biological target: T34, ULK3 (Homo sapiens, UniProt Q6PHR2); conditions: 35 at 1 µM; read-out: % inhibition
# T34 construct: purchased Eurofins DiscoverX (KINOMEscan)
# Procedure: as §1
# [35] = biological target: T35, IRAK1 (Homo sapiens, UniProt P51617); conditions: 35 at 1 µM; read-out: % inhibition
# T35 construct: purchased Eurofins DiscoverX (KINOMEscan)
# Procedure: as §1
# [36] = biological target: T36, ASK2 (Homo sapiens, UniProt O95382); conditions: 35 at 1 µM; read-out: % inhibition
# T36 construct: purchased Eurofins DiscoverX (KINOMEscan)
# Procedure: as §1
# [37] = biological target: T37, RPS6KA4(Kin.Dom.2-C-terminal) (Homo sapiens, UniProt O75676); conditions: 35 at 1 µM; read-out: % inhibition
# T37 construct: RPS6KA4(Kin.Dom.2-C-terminal); purchased Eurofins DiscoverX (KINOMEscan)
# T37 sequence (O75676 372-772 limits assumed): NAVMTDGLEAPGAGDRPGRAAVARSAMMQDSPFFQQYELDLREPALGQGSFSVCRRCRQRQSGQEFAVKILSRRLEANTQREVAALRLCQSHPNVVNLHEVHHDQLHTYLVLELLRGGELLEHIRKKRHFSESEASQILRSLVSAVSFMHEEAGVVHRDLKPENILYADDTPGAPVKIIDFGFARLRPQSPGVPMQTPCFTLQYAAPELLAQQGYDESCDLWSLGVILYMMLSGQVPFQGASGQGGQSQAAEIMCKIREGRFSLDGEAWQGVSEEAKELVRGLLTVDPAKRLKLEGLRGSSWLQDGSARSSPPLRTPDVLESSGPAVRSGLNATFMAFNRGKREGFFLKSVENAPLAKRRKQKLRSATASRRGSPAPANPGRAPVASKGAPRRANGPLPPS
# Procedure: as §1
# [38] = biological target: T38, HIPK4 (Homo sapiens, UniProt Q8NE63); conditions: 35 at 1 µM; read-out: % inhibition
# T38 construct: purchased Eurofins DiscoverX (KINOMEscan)
# Procedure: as §1
# [39] = biological target: T39, JAK1(JH1domain-catalytic) (Homo sapiens, UniProt P23458); conditions: 35 at 1 µM; read-out: % inhibition
# T39 construct: JAK1(JH1domain-catalytic); purchased Eurofins DiscoverX (KINOMEscan)
# Procedure: as §1
# [40] = biological target: T40, MEK5 (Homo sapiens, UniProt Q13163)
# T40 construct: purchased Eurofins DiscoverX (KINOMEscan)
# T40 sequence (Q13163 whole entry): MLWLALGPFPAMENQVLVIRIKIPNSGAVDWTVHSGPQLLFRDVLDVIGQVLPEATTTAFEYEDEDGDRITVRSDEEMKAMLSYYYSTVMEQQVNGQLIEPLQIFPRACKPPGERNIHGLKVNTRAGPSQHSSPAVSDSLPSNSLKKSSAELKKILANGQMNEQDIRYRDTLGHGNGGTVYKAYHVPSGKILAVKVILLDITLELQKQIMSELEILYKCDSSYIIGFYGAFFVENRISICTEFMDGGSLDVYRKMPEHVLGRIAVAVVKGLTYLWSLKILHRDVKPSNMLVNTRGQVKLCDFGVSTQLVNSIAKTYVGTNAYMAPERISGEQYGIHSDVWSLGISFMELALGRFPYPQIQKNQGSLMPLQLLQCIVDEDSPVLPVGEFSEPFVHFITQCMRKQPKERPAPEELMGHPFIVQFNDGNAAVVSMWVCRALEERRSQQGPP
# Procedure: as §1
# [41] = biological target: T41, ERBB3 (Homo sapiens, UniProt P21860); conditions: 35 at 1 µM; read-out: % inhibition
# T41 construct: purchased Eurofins DiscoverX (KINOMEscan)
# Procedure: as §1
# [42] = biological target: T42, PKAC-alpha (Homo sapiens, UniProt P17612); conditions: 35 at 1 µM; read-out: % inhibition
# T42 construct: purchased Eurofins DiscoverX (KINOMEscan)
# Procedure: as §1
smiles,measurement,setting,value
"Brc1ccc2nccc(Nc3ccc4cn[nH]c4c3)c2c1 [Compound 35, 6-Bromo-N-(1H-indazol-6-yl)quinolin-4-amine]",activity at 1 µM,[1],100%
same,activity at 1 µM,[2],95%
same,activity at 1 µM,[3],100%
same,activity at 1 µM,[4],100%
same,activity at 1 µM,[5],100%
same,activity at 1 µM,[6],95%
same,activity at 1 µM,[7],100%
same,activity at 1 µM,[8],100%
same,activity at 1 µM,[9],100%
same,activity at 1 µM,[10],100%
same,activity at 1 µM,[11],73%
same,activity at 1 µM,[12],100%
same,activity at 1 µM,[13],100%
same,activity at 1 µM,[14],88%
same,activity at 1 µM,[15],100%
same,activity at 1 µM,[16],97%
same,activity at 1 µM,[17],47%
same,activity at 1 µM,[18],100%
same,activity at 1 µM,[19],95%
same,activity at 1 µM,[20],100%
same,activity at 1 µM,[21],100%
same,activity at 1 µM,[22],91%
same,activity at 1 µM,[23],92%
same,activity at 1 µM,[24],92%
same,activity at 1 µM,[25],100%
same,activity at 1 µM,[26],93%
same,activity at 1 µM,[27],100%
same,activity at 1 µM,[28],100%
same,activity at 1 µM,[29],100%
same,activity at 1 µM,[30],100%
same,activity at 1 µM,[31],79%
same,activity at 1 µM,[32],100%
same,activity at 1 µM,[33],100%
same,activity at 1 µM,[34],81%
same,activity at 1 µM,[35],100%
same,activity at 1 µM,[36],100%
same,activity at 1 µM,[37],100%
same,activity at 1 µM,[38],57%
same,activity at 1 µM,[39],100%
same,activity at 1 µM,"[40]; 35 at 1 µM, read-out: % inhibition",11%
same,inhibition at 1 µM,"[40]; KinomeScan, screened at 1 μM, read-out: kinases inhibited at 1 μM: MEK5",89%
same,activity at 1 µM,[41],100%
same,activity at 1 µM,[42],98%
